This passage reports mutagenic call results from PubChem BioAssay AID1259407 (Chemical Carcinogenesis Research Information System (CCRIS), 2018).

Calls of active or inactive are those of the source. The rule behind the calls is not given here.

This data set deals with CCRIS mutagenicity, Ames/micronucleus/aberration tests. As to the kind of experiment: CCRIS mutagenicity studies.
Setting [1] is: Test System: AMES SALMONELLA TYPHIMURIUM, Strain/Indicator: TA100, Metabolic Activation: NONE, Method: PREINCUBATION
Where [2] appears, read: Test System: AMES SALMONELLA TYPHIMURIUM, Strain/Indicator: TA100, Metabolic Activation: NONE, Method: STANDARD PLATE.
The mark [3] stands for this setting: Test System: AMES SALMONELLA TYPHIMURIUM, Strain/Indicator: TA98, Metabolic Activation: NONE, Method: STANDARD PLATE.
[4] abbreviates: Test System: AMES SALMONELLA TYPHIMURIUM, Strain/Indicator: TA1537, Metabolic Activation: NONE, Method: STANDARD PLATE.

Consider `CCOc1ccc(N(O)C(C)=O)cc1`, for which the mutagenic call runs as follows: (End Point: IN VITRO MICRONUCLEUS, Test System: RAT KIDNEY FIBROBLAST NRK-49F, Metabolic Activation: NONE) “active; positive”; (Test System: AMES SALMONELLA TYPHIMURIUM, Strain/Indicator: TA100, Metabolic Activation: HAMSTER, LIVER, S-9, AROCLOR 1254, Method: LIQUID SUSPENSION) “active; positive”; (Test System: AMES SALMONELLA TYPHIMURIUM, Strain/Indicator: TA100, Metabolic Activation: HAMSTER, LIVER, S-9, KANECHLOR 400 (WITHOUT NADPH GENERATING SYSTEM), Method: PREINCUBATION) “active; positive”; under setting [1], “inactive; negative”; (Test System: AMES SALMONELLA TYPHIMURIUM, Strain/Indicator: TA100, Metabolic Activation: RAT, LIVER, S-9, PCB, Method: LIQUID SUSPENSION) “active; positive”.
`ClCc1ccc(Br)cc1`: under setting [2], the mutagenic call was “inactive; negative”.
Turning to `O=C1CCc2c1ccc1c2ccc2ccccc21`, the mutagenic call (Test System: AMES SALMONELLA TYPHIMURIUM, Strain/Indicator: TA100, Metabolic Activation: RAT, LIVER, MICROSOMES, AROCLOR 1254, Method: STANDARD PLATE) is “active; positive”; the mutagenic call (Test System: AMES SALMONELLA TYPHIMURIUM, Strain/Indicator: TA100, Metabolic Activation: RAT, LIVER, MICROSOMES, BENZO[A]PYRENE, Method: STANDARD PLATE) is “inactive; negative”; the mutagenic call (Test System: AMES SALMONELLA TYPHIMURIUM, Strain/Indicator: TA100, Metabolic Activation: RAT, LIVER, MICROSOMES, CLOFIBRATE, Method: STANDARD PLATE) was “inactive; negative”; the mutagenic call (Test System: AMES SALMONELLA TYPHIMURIUM, Strain/Indicator: TA100, Metabolic Activation: RAT, LIVER, MICROSOMES, DEXAMETHASONE, Method: STANDARD PLATE) was “inactive; negative”; the mutagenic call (Test System: AMES SALMONELLA TYPHIMURIUM, Strain/Indicator: TA100, Metabolic Activation: RAT, LIVER, MICROSOMES, ISONIAZID, Method: STANDARD PLATE) was “inactive; negative”; the mutagenic call (Test System: AMES SALMONELLA TYPHIMURIUM, Strain/Indicator: TA100, Metabolic Activation: RAT, LIVER, MICROSOMES, PHENOBARBITONE, Method: STANDARD PLATE) was “inactive; negative”.
Regarding `BrCCCCBr`, the mutagenic call is “active; positive (structural changes); authors report equivocal results for ploidy chang” (End Point: IN VITRO CHROMOSOMAL ABERRATIONS, Test System: CHL CELLS, Metabolic Activation: RAT, LIVER, S-9, SODIUM PHENOBARBITAL AND 5,6-BENZOFLAVONE); “inactive; negative” (Test System: AMES SALMONELLA TYPHIMURIUM, Strain/Indicator: TA98, Metabolic Activation: NONE, Method: PREINCUBATION); “inactive; negative” (Test System: AMES SALMONELLA TYPHIMURIUM, Strain/Indicator: TA98, Metabolic Activation: RAT LIVER S-9, PHENOBARBITAL AND BETA-NAPHTHOFLAVONE, Method: PREINCUBATION); “inactive; negative” under setting [1]; “active; positive” (Test System: AMES SALMONELLA TYPHIMURIUM, Strain/Indicator: TA1535, Metabolic Activation: NONE, Method: PREINCUBATION); “active; positive” (Test System: AMES SALMONELLA TYPHIMURIUM, Strain/Indicator: TA1535, Metabolic Activation: RAT LIVER S-9, PHENOBARBITAL AND BETA-NAPHTHOFLAVONE, Method: PREINCUBATION). The mutagenic call runs as follows: (Test System: AMES SALMONELLA TYPHIMURIUM, Strain/Indicator: TA1537, Metabolic Activation: NONE, Method: PREINCUBATION) “inactive; negative”; (Test System: AMES SALMONELLA TYPHIMURIUM, Strain/Indicator: TA1537, Metabolic Activation: RAT LIVER S-9, PHENOBARBITAL AND BETA-NAPHTHOFLAVONE, Method: PREINCUBATION) “inactive; negative”; (Test System: E.COLI, Strain/Indicator: WP2UVRA, Metabolic Activation: NONE, Method: PREINCUBATION) “active; positive”; (Test System: E.COLI, Strain/Indicator: WP2UVRA, Metabolic Activation: RAT LIVER S-9, PHENOBARBITAL AND BETA-NAPHTHOFLAVONE, Method: PREINCUBATION) “active; positive”.
On to `NC[C@H]1CCCN1.O=C([O-])C1(C(=O)[O-])CCC1.[Pt+2]`, for which the mutagenic call is “inactive; negative” under setting [3]; “inactive; negative” (Test System: AMES SALMONELLA TYPHIMURIUM, Strain/Indicator: TA98, Metabolic Activation: RAT, LIVER, S-9, PHENOBARBITAL AND 5,6-BENZOFLAVONE, Method: STANDARD PLATE); “inactive; negative” under setting [2]; “inactive; negative” (Test System: AMES SALMONELLA TYPHIMURIUM, Strain/Indicator: TA100, Metabolic Activation: RAT, LIVER, S-9, PHENOBARBITAL AND 5,6-BENZOFLAVONE, Method: STANDARD PLATE); “inactive; negative” (Test System: AMES SALMONELLA TYPHIMURIUM, Strain/Indicator: TA1535, Metabolic Activation: NONE, Method: STANDARD PLATE); “inactive; negative” (Test System: AMES SALMONELLA TYPHIMURIUM, Strain/Indicator: TA1535, Metabolic Activation: RAT, LIVER, S-9, PHENOBARBITAL AND 5,6-BENZOFLAVONE, Method: STANDARD PLATE). Also, the mutagenic call was “inactive; negative” under setting [4]; “inactive; negative” (Test System: AMES SALMONELLA TYPHIMURIUM, Strain/Indicator: TA1537, Metabolic Activation: RAT, LIVER, S-9, PHENOBARBITAL AND 5,6-BENZOFLAVONE, Method: STANDARD PLATE); “inactive; negative” (Test System: E. COLI, Strain/Indicator: WP2 UVRA, Metabolic Activation: NONE, Method: STANDARD PLATE); “inactive; negative” (Test System: E. COLI, Strain/Indicator: WP2 UVRA, Metabolic Activation: RAT, LIVER, S-9, PHENOBARBITAL AND 5,6-BENZOFLAVONE, Method: STANDARD PLATE).
For `Cn1c(NO)nc2c3cccnc3ccc21`, the mutagenic call is, setting by setting: (Test System: AMES SALMONELLA TYPHIMURIUM, Strain/Indicator: TA98(NR), Metabolic Activation: NADPH, Method: STANDARD PLATE) “active; positive”; (Test System: AMES SALMONELLA TYPHIMURIUM, Strain/Indicator: TA98(NR), Metabolic Activation: NONE, Method: STANDARD PLATE) “active; positive”; (Test System: AMES SALMONELLA TYPHIMURIUM, Strain/Indicator: TA98(NR), Metabolic Activation: RAT, LIVER, MICROSOMES, NADPH, Method: STANDARD PLATE) “active; positive”; (Test System: AMES SALMONELLA TYPHIMURIUM, Strain/Indicator: TA98(NR), Metabolic Activation: RAT, LIVER, MICROSOMES, Method: STANDARD PLATE) “active; positive”; (Test System: AMES SALMONELLA TYPHIMURIUM, Strain/Indicator: TA98(NR), Method: STANDARD PLATE) “active; positive”; under setting [3], “active; positive”.
Consider `CC(=O)Nc1ccc2[nH]c3ccccc3c2c1`, for which the mutagenic call is “inactive; negative” under setting [3]; “active; positive” (Test System: AMES SALMONELLA TYPHIMURIUM, Strain/Indicator: TA98, Metabolic Activation: RAT, LIVER, S-9, PHENOBARBITAL, Method: STANDARD PLATE); “inactive; negative” under setting [2]; “inactive; negative” (Test System: AMES SALMONELLA TYPHIMURIUM, Strain/Indicator: TA100, Metabolic Activation: RAT, LIVER, S-9, PHENOBARBITAL, Method: STANDARD PLATE); “inactive; negative” under setting [4]; “inactive; negative” (Test System: AMES SALMONELLA TYPHIMURIUM, Strain/Indicator: TA1537, Metabolic Activation: RAT, LIVER, S-9, PHENOBARBITAL, Method: STANDARD PLATE). Further, the mutagenic call is, setting by setting: (Test System: AMES SALMONELLA TYPHIMURIUM, Strain/Indicator: TA1538, Metabolic Activation: NONE, Method: STANDARD PLATE) “inactive; negative”; (Test System: AMES SALMONELLA TYPHIMURIUM, Strain/Indicator: TA1538, Metabolic Activation: RAT, LIVER, S-9, PHENOBARBITAL, Method: STANDARD PLATE) “active; positive”; (Test System: AMES SALMONELLA TYPHIMURIUM, Strain/Indicator: TA1977, Metabolic Activation: NONE, Method: STANDARD PLATE) “inactive; negative”; (Test System: AMES SALMONELLA TYPHIMURIUM, Strain/Indicator: TA1977, Metabolic Activation: RAT, LIVER, S-9, PHENOBARBITAL, Method: STANDARD PLATE) “inactive; negative”.
